Assay results as given in PMC10296094, “K-Ras Binds Calmodulin-Related Centrin1 with Potential Implications for K-Ras Driven Cancer Cell Stemness” (Cancers, 2023).
Where two headings read alike, the source gives them in different places.

What was measured:
centrin1 = molecular target: T1, centrin1 (Homo sapiens, UniProt Q12798); assay: Fluorescence anisotropy competition: displacement of F-Sfi1 from centrin1 by CaM inhibitors; type: binding
T1 sequence (Q12798 1-172): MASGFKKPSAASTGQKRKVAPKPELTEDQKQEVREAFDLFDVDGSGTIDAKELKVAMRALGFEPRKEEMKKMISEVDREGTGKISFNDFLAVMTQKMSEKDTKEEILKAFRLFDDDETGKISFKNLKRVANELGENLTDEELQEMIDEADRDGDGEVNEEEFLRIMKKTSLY
Method: The Sfi1 peptide was derived from 670-REVAA-RESQH-NRQLL-RGALR-RWK-692 of human Sfi1 and the fluorescein was attached to the native C-terminal Lys. Sfi1 peptide titration was performed in a buffer composed of 10 mM HEPES pH 7.4, 100 mM CaCl2, and 0.005% v/v Tween 20. For binding, to a 2-fold dilution series of centrin1, 100 nM of Sfi1 peptide was added, and the reaction mix was incubated for 45 min at RT before anisotropy measurements. For measuring the IC50 of inhibitors to centrin1, to the 3-fold dilution series of inhibitors in the assay buffer, a complex of 100 nM fluorescein labelled Sfi1 peptide and 250 nM His-centrin1 was added in 20 µL volume in a 384-well plate. The fluorescence anisotropy was measured after overnight incubation at RT.
The fluorescence anisotropy was measured on a Clariostar (BMG Labtech, Ortenberg, Germany) plate reader using the fluorescence intensity signal recorded from vertical (Iv)- and horizontal (Ih)-polarised light using a fluorescence polarisation module (λexcitation 482 ± 8 nm and λemission 530 ± 20 nm). Fluorescence anisotropy was calculated from the measured fluorescence intensities according to r=Iv−GλIh/Iv+2GλIh, where r is the fluorescence anisotropy value and Iv and Ih are the fluorescence emission intensities detected with vertical and horizontal polarisation, respectively. The instrument specific correction factor G(λ) was set to 1 and not determined further. A quadratic equation as described by others was defined in Prism (GraphPad, version 9.5.1, La Jolla, CA, USA) and was used to determine the KD value of the fluorescein tagged peptides to target protein. y=Af+Ab−Af∗(Lt+KD+x−Lt+KD+x^2−4∗Lt∗x/2Lt
The IC50 value of inhibitors was determined by plotting the log concentration of inhibitor against fluorescence anisotropy values and fitting the data to log inhibitor vs. response—variable slope (four parameters) equation in Prism (GraphPad).

CaM = conditions: F-PMCA peptide as probe; read-out: CaM Kd (References); cited from earlier work
K-RasG12V/centrin1 = molecular target: T2, K-RasG12V/centrin1 (Homo sapiens, UniProt Q12798); assay: Cellular BRET Rluc8-K-RasG12V/GFP2-centrin1 in HEK293-ebna cells; type: cell-based; conditions: for effect on BRETtop of K-RasG12V/centrin1: ophiobolin A 2.5 µM, calmidazolium 10 µM, calmirasone1 20 µM, 24 h, n = 3
T2 construct: expressed in transfected cells; host or cells: HEK293-ebna
T2 sequence (Q12798 1-172): T1 sequence (Q12798 1-172)
Method: Briefly, ~200,000 HEK293-ebna cells were seeded per well of a 12-well plate (cat. no. 665180, Greiner Bio-One, Vivoorde, Belgium) and grown in 1 mL of complete DMEM. The next day, ~1 µg of BRET sensor plasmids was transfected using 2.5 µL of jetPRIME. The concentration of donor plasmid was 25 ng, and that of the acceptor plasmid had increased from 25 ng to 1000 ng for titration curves. Cells were treated with inhibitors or vehicle control (DMSO at 0.2% v/v) 24 h after transfection. Cells were collected the following day in PBS and plated in white, flat bottom 96-well plates (cat. no. 236108, Nunc, Thermo Fisher Scientific). BRET measurements were performed on a Clariostar plate reader (BMG Labtech). Three channels were read. The first channel was First, GFP2-fluorescence (λexcitation 405 ± 10 nm and λemission 515 ± 10 nm), which is directly proportional to the acceptor concentration (RFU). Second, the channel was read after adding coelenterazine 400a (cat. no. C-320, GoldBio, Saint Louis, MO, USA; at 10 μM final concentration) BRET-channel (515 ± 15 nm) readings in well-mode, and then again (third) with the luminescence channel (410 ± 40 nm), and recordings were made. Signals corresponded to the BRET signal and donor (RLU) signals. The ratio of BRET signal/RLU gave the raw BRET ratio. The final BRET ratio (BRET in plots) was obtained by subtracting the raw BRET ratio from the background raw BRET ratio of cells expressing only the donor. The relative expression is calculated as the ratio of RFU/RLU and denoted as [Acceptor]/[Donor]. […]
For dose response analysis of inhibitors, on day one, ~200,000 HEK293-ebna cells were seeded per well of a 12-well plate (cat. No. 665180, Greiner Bio-One, Vivoorde, Belgium) and grown in complete DMEM. […] The log inhibitor vs BRET ratio was plotted, and the data were fitted by a log (inhibitor) vs. response variable slope (four parameters) equation of Prism, and the IC50 values were calculated.

K-Ras/centrin1 = assay: Cellular BRET donor saturation titration Rluc8-K-Ras/GFP2-centrin1 in HEK293-ebna cells; type: cell-based, human; conditions: 10 µM mevastatin, 24 h
Method: (§1) The detailed method of our BRET assay can be found in [9, 43]. Briefly, ~200,000 HEK293-ebna cells were seeded per well of a 12-well plate (cat. no. 665180, Greiner Bio-One, Vivoorde, Belgium) and grown in 1 mL of complete DMEM. The next day, ~1 µg of BRET sensor plasmids was transfected using 2.5 µL of jetPRIME. The concentration of donor plasmid was 25 ng, and that of the acceptor plasmid had increased from 25 ng to 1000 ng for titration curves. Cells were treated with inhibitors or vehicle control (DMSO at 0.2% v/v) 24 h after transfection. Cells were collected the following day in PBS and plated in white, flat bottom 96-well plates (cat. no. 236108, Nunc, Thermo Fisher Scientific). BRET measurements were performed on a Clariostar plate reader (BMG Labtech). Three channels were read. The first channel was First, GFP2-fluorescence (λexcitation 405 ± 10 nm and λemission 515 ± 10 nm), which is directly proportional to the acceptor concentration (RFU). Second, the channel was read after adding coelenterazine 400a (cat. no. C-320, GoldBio, Saint Louis, MO, USA; at 10 μM final concentration) BRET-channel (515 ± 15 nm) readings in well-mode, and then again (third) with the luminescence channel (410 ± 40 nm), and recordings were made. Signals corresponded to the BRET signal and donor (RLU) signals. […] The relative expression is calculated as the ratio of RFU/RLU and denoted as [Acceptor]/[Donor]. […]

CTK/centrin1 = assay: Cellular BRET donor saturation titration Rluc8-CTK/GFP2-centrin1 in HEK293-ebna cells; type: cell-based, human; conditions: 10 µM mevastatin, 24 h
Method: as §1

CTK/CaM = assay: Cellular BRET donor saturation titration Rluc8-CTK/GFP2-CaM in HEK293-ebna cells; type: cell-based, human; conditions: 10 µM mevastatin, 24 h
Method: as §1

K-Ras/CaM = assay: Cellular BRET donor saturation titration Rluc8-K-Ras/GFP2-CaM in HEK293-ebna cells; type: cell-based, human; conditions: 10 µM mevastatin, 24 h
Method: as §1

[1] = 100 nM F-Sfi1 and 250 nM His-centrin1, overnight at RT, Kd converted from IC50, read-out: Centrin1 Mean Kd (Repeat Values)

SMILES: NCCCCCCNS(=O)(=O)c1cccc2c(Cl)cccc12 [W-7]
- Kd (centrin1; [1]): 18.2 µM
- Kd (CaM): 1470 nM

SMILES: Clc1ccc(C(c2ccc(Cl)cc2)n2cc[n+](CC(OCc3ccc(Cl)cc3Cl)c3ccc(Cl)cc3Cl)c2)cc1 (centres unmarked) [calmidazolium, calmidazolium chloride]
- IC50 (K-RasG12V/centrin1; HEK293-ebna, donor/acceptor plasmid ratio 1/19, 24 h treatment, n = 2, read-out: IC50, inhibition of K-RasG12V/centrin1 BRET interaction): 10.44 ± 0.05 µM
- effect on BRETtop of K-RasG12V/centrin1 (K-RasG12V/centrin1): lowered
- Kd (centrin1; [1]): 1.6 µM
- Kd (CaM): 13.5 nM

SMILES: CC[C@H](C)C(=O)O[C@H]1CCC=C2C=C[C@H](C)[C@H](CC[C@@H]3C[C@@H](O)CC(=O)O3)[C@H]21 [mevastatin]
- effect on BRET-levels of K-Ras with centrin1 (K-Ras/centrin1): did not significantly affect
- BRETtop (K-Ras + centrin1) (K-Ras/centrin1; n = 3): 0.078 ± 0.005
- effect on BRET of CTK with centrin1 (CTK/centrin1): did not decrease
- BRETtop (CTK + centrin1) (CTK/centrin1; n = 3): 0.061 ± 0.003
- effect on BRET of CTK with CaM (CTK/CaM): did not decrease
- BRETtop (CTK + CaM) (CTK/CaM; n = 3): 0.063 ± 0.004
- effect on BRET-levels of K-Ras with CaM (K-Ras/CaM): did not significantly affect
- BRETtop (K-Ras + CaM) (K-Ras/CaM; n = 3): 0.097 ± 0.005

SMILES: CC(C)=C[C@H]1C[C@H](C)[C@]2(CC[C@]3(C)C[C@H]4[C@H](C(=O)C[C@@]4(C)O)/C(C=O)=C\C[C@H]32)O1 [ophiobolin A]
- effect on BRETtop of K-RasG12V/centrin1 (K-RasG12V/centrin1): lowered
- Kd (centrin1): 49 µM
- Kd (CaM): 3500 nM
